Source: patent US20260138976A1 (Hoffmann-La Roche Inc., priority 2022, published 2026)

What was measured:
MV-3 cells = experiment: T-cell - TCB - MV3 killing assay; format: cell-based, human; conditions: for Emax: Homo sapiens, MV-3, 120 h, % TCL normalized: MCSP-TCB only = neutral control, 20 μM reference compound A1 = 100%, read-out: MSCP TCB killing MV-3 cells 5 d Emax (%); for EC50: primary human T-cells + MV-3 RFP cells, MCSP-TCB 1.5 pM-5 pM, 120 hours imaging, read-out: MSCP TCB killing MV-3 cells 5 d EC50
Experimental: All culturing steps are executed at 5% CO2, 37° C. and 95% humidity. MV-3 RFP cells are cultured in MV-3 medium (DMEM+10% FBS, 1× PenStrep and 0.5 μg/mL Puromycin) for at least 3 weeks. Cultured MV-3 cells at 80% confluency are washed once with PBS−− and trypsinized until detached. […] Cells are seeded with 100 μL/well into a 96-well plate (TTP, #92696), and placed for 40 minutes without moving at room temperature in order to achieve evenly distributed attachment of cells. Plates are then incubated until further use.
On the next day, expanded primary human T-cells are thawed and resuspended in T-cell medium to 4*10^6 cells/mL. For 3 hours, they are cultured in a 6-well plate with 6 mL per well at maximum. After culturing the T-cells, they are filtered through a cell strainer (Miltenyi Biotech, #130-041-407), counted again, and cell concentration is adjusted to 2*10^6 cells/mL.
MCSP-TCB or PBS are pre-diluted in T-cell medium (concentration depending on T-cell donor), 4 times more concentrated than the end-concentration. 60 μL/well of pre-dilutions are then distributed into a round bottom plate (Costar, #3799) according to plate layout. Compounds are added in a 9 pt dose response with the Tecan D300e Digital Dispenser, as well 4 times more concentrated than the end-concentration. DMSO concentration of all wells is adjusted to 0.8%, resulting in 0.2% as final concentration.
60 μL per well of T-cell suspension are added to the prepared round bottom plate and resuspended with a manual multichannel. 100 μL/well of the resuspended T-cell suspension including treatments are then transferred cautiously to the over-night cultured MV-3 cells according to plate layout. 100 μL T-cell medium only is added to the outer MV-3 wells only. Final compound DR is starting at 20 μM with a dilution factor of 3.333. Final TCB concentration is between 1.5 pM to 5 pM and was determined for each T-cell donor individually by running TCB titrations. For each donor, a TCB concentration was chosen which corresponds to 10-20% MV3 baseline cell killing in the absence of compound treatment. Positive control is the reference compound A1 which is added in a DR, as well as additional wells with only 20 μM. 20 μM of reference compound A1 represent the positive stimulator control, TCB only (DMSO wells) the neutral control.
After transfer of T-cells with treatment pre-dilutions, MV-3 cells are imaged by time-lapse microscopy using IncucyteZOOM™ (Essen BioScience, MI, USA). Imaging is performed every 3 hours for a total of 120 hours (10× objective, phase and red image channels, acquisition time 400 ms, Green/Red 4614 optical module). RFP object count per well is analysed in the IncucyteZOOM™ Software (Version 2019B Rev2) with a mask that was previously created and optimized for MV-3 cells. Raw data is exported as object count/well and values are normalized as % TCL compared to wells with MV-3 only, representing 100% growth and therefore 0% TCL.
Calculated % TCL values are analysed in Genedata Screener using Roche Normalization PCT_POS_CTRL with MCSP-TCB only set as Neutral Control and 20 μM of the reference compound A1 set as Stimulator Control/100%.
Induced TCL by compounds without TCB treatment or toxicity (observed in the PBS condition) were be flagged.

DGK α kinase = biological target: T1, DGK α kinase (Homo sapiens, UniProt P23743); experiment: DGKalpha kinase ADP Glo assay run by Reaction Biology Corp.; format: biochemical; conditions: 2 nM kinase, 50 µM ATP, 500 μM DLG, 10-dose duplicate
T1 construct: purchased Reaction Biology Corp. (contract assay service)
Experimental: (§1) DGK α and ζ kinases use ATP to phosphorylate the substrate 1,2-dilauroyl-sn-glycerol (DLG). ATP is converted to ADP as a result of this enzymatic reaction.
(§2) After the kinase reaction, an ATP-depletion reagent is added to terminate the kinase reaction and deplete any remaining ATP, leaving only ADP. Second, a detection reagent is added to simultaneously convert ADP to ATP and allow the newly synthesized ATP to be converted to light using a coupled luciferase/luciferin reaction.
(§3) DGK α and ζ kinase ADP Glo assays were ran by Reaction Biology Corp., 1 Great Valley Parkway, Suite 2, Malvern, 19355, PA, USA. Information provided by the service provider are the following: DGK α and ζ kinases were used at 2 nM final concentration. Reactions were carried out at 50 µM ATP. 500 μM of the substrate DLG (Dilauroyl-sn-glycerol) was used.

DGK ζ kinase = biological target: T2, DGK ζ kinase (Homo sapiens, UniProt Q13574); experiment: DGKzeta kinase ADP Glo assay run by Reaction Biology Corp.; format: biochemical; conditions: 2 nM kinase, 50 µM ATP, 500 μM DLG, 10-dose duplicate
T2 construct: purchased Reaction Biology Corp. (contract assay service)
Experimental: as §1, §2, §3

T1 sequence (P23743 whole entry): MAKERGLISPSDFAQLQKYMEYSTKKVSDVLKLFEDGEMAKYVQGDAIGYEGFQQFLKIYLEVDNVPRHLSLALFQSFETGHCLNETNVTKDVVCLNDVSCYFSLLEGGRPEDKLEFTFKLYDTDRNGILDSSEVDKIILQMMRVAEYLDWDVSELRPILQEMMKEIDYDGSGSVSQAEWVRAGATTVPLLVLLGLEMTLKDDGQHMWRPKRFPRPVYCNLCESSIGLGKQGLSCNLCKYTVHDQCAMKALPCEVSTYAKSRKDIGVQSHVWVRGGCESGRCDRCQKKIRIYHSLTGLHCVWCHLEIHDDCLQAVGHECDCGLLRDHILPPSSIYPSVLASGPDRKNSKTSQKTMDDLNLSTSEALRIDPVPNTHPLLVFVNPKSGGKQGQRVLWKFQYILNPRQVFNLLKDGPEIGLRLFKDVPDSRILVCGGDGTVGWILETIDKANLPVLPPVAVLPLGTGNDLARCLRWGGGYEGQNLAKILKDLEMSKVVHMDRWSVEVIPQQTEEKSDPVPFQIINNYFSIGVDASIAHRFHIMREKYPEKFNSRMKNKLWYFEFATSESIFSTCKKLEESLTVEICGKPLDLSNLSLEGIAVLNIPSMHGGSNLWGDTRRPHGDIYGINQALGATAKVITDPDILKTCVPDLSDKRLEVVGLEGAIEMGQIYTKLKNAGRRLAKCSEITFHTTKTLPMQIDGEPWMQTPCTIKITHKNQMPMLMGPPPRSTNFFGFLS
T2 sequence (Q13574 whole entry): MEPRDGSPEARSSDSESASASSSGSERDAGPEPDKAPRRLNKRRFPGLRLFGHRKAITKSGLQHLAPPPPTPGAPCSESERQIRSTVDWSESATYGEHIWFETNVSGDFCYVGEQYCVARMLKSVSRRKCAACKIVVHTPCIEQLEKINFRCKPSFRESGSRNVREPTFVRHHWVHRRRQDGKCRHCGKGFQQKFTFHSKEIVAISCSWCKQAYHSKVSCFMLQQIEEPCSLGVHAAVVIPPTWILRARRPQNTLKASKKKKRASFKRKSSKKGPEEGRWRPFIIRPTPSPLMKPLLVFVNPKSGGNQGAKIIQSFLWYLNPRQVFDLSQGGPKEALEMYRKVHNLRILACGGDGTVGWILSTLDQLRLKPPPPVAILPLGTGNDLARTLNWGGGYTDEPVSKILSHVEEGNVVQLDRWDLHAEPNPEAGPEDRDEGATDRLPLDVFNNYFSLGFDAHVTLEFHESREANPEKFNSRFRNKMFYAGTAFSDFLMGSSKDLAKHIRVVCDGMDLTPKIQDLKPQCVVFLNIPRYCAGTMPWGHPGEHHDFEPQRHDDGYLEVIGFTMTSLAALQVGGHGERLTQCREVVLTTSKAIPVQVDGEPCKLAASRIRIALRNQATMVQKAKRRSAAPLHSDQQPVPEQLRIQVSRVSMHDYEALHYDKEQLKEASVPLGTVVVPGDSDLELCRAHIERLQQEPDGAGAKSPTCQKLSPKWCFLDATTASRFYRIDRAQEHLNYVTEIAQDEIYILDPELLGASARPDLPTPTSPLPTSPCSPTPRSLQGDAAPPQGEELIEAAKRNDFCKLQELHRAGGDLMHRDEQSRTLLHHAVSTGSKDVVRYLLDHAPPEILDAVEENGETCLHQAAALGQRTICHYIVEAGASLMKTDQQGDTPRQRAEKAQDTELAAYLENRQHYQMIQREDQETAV

IC50 (DGK α kinase) [nM]	IC50 (DGK ζ kinase) [nM]	SMILES	Emax (MV-3 cells) [%]	EC50 (MV-3 cells) [nM]
		N[C@H]1CS(=O)(=O)c2cc(F)c(-c3noc(C4(CO)CCCO4)n3)cc2N(Cc2ccc(-c3noc(C(F)(F)F)n3)cc2)C1=O (stereo partly drawn) [Example 18, (3R)-3-amino-8-fluoro-7-[5-[2-(hydroxymethyl)tetrahydrofuran-2-yl]-1,2,4-oxadiazol-3-yl]-1,1-dioxo-5-[[4-[5-(trifluoromethyl)-1,2,4-oxadiazol-3-yl]phenyl]methyl]-2,3-dihydro-1λ^6,5-benzothiazepin-4-one]	67	29
282	510	CC(C)(C)c1nnc(-c2ccc3c(c2)N(Cc2ccc(-c4nnc(C(F)(F)F)o4)cc2)C(=O)[C@@H](N)CS3(=O)=O)o1 [Example 24, (3R)-3-amino-7-(5-tert-butyl-1,3,4-oxadiazol-2-yl)-1,1-dioxo-5-[[4-[5-(trifluoromethyl)-1,3,4-oxadiazol-2-yl]phenyl]methyl]-2,3-dihydro-1λ^6,5-benzothiazepin-4-one]	108	273
173	128	CC(N)(c1nnc(-c2ccc3c(c2)N(Cc2ccc(-c4noc(C(F)(F)F)n4)cc2)C(=O)[C@@H](N)CS3(=O)=O)o1)C(F)(F)F (stereo partly drawn) [Example 32, (3R)-3-amino-7-[5-(1-amino-2,2,2-trifluoro-1-methyl-ethyl)-1,3,4-oxadiazol-2-yl]-1,1-dioxo-5-[[4-[5-(trifluoromethyl)-1,2,4-oxadiazol-3-yl]phenyl]methyl]-2,3-dihydro-1λ^6,5-benzothiazepin-4-one]	100	120
		CC(C#N)c1nnc(-c2ccc3c(c2)N(Cc2ccc(-c4noc(C(F)(F)F)n4)cc2)C(=O)[C@@H](N)CS3(=O)=O)o1 (stereo partly drawn) [Example 35, 2-[5-[(3R)-3-amino-1,1,4-trioxo-5-[[4-[5-(trifluoromethyl)-1,2,4-oxadiazol-3-yl]phenyl]methyl]-2,3-dihydro-1λ^6,5-benzothiazepin-7-yl]-1,3,4-oxadiazol-2-yl]propanenitrile]	91	373
58.5	50.7	N[C@H]1CS(=O)(=O)c2ccc(-c3nnc(C4(C5CC5)CCCO4)o3)cc2N(Cc2ccc(-c3noc(C(F)(F)F)n3)cc2)C1=O (stereo partly drawn) [Example 36, (3R)-3-amino-7-[5-(2-cyclopropyl-tetrahydrofuran-2-yl)-1,3,4-oxadiazol-2-yl]-1,1-dioxo-5-[[4-[5-(trifluoromethyl)-1,2,4-oxadiazol-3-yl]phenyl]methyl]-2,3-dihydro-1λ^6,5-benzothiazepin-4-one]		
		COC(F)(c1nnc(-c2ccc3c(c2)N(Cc2ccc(-c4noc(C(F)(F)F)n4)cc2)C(=O)[C@@H](N)CS3(=O)=O)o1)C(F)(F)F (stereo partly drawn) [Example 37, (3R)-3-amino-1,1-dioxo-7-[5-(1,2,2,2-tetrafluoro-1-methoxy-ethyl)-1,3,4-oxadiazol-2-yl]-5-[[4-[5-(trifluoromethyl)-1,2,4-oxadiazol-3-yl]phenyl]methyl]-2,3-dihydro-1λ^6,5-benzothiazepin-4-one]	133	58
94.6	56.4	N[C@H]1CS(=O)(=O)c2ccc(-c3nnc(C4(N)CCCCC4)o3)cc2N(Cc2ccc(-c3noc(C(F)(F)F)n3)cc2)C1=O [Example 39, (3R)-3-amino-7-[5-(1-aminocyclohexyl)-1,3,4-oxadiazol-2-yl]-1,1-dioxo-5-[[4-[5-(trifluoromethyl)-1,2,4-oxadiazol-3-yl]phenyl]methyl]-2,3-dihydro-1λ^6,5-benzothiazepin-4-one]	72	190
		N[C@H]1CS(=O)(=O)c2ccc(-c3nnc(C4(CO)CCCO4)o3)cc2N(Cc2ccc(-c3noc(C(F)(F)F)n3)cc2)C1=O (stereo partly drawn) [Example 54, (3R)-3-amino-7-[5-[2-(hydroxymethyl)tetrahydrofuran-2-yl]-1,3,4-oxadiazol-2-yl]-1,1-dioxo-5-[[4-[5-(trifluoromethyl)-1,2,4-oxadiazol-3-yl]phenyl]methyl]-2,3-dihydro-1λ^6,5-benzothiazepin-4-one]	86	246
		N[C@H]1CS(=O)(=O)c2ccc(-c3nnc(N4CCOC(F)(F)C4)o3)cc2N(Cc2ccc(-c3nnc(C(F)(F)F)o3)cc2)C1=O [Example 80]	86	257
11.1	4.1	CC(C)(C#N)c1nnc(-c2cc3c(cc2F)S(=O)(=O)C[C@H](N)C(=O)N3Cc2ccc(-c3ccc(C(F)(F)F)cn3)cc2)o1 [Example 88, 2-[5-[(3R)-3-amino-8-fluoro-1,1,4-trioxo-5-[[4-[5-(trifluoromethyl)-2-pyridyl]phenyl]methyl]-2,3-dihydro-1λ^6,5-benzothiazepin-7-yl]-1,3,4-oxadiazol-2-yl]-2-methyl-propanenitrile]		
		Cn1nc(C(F)(F)F)cc1-c1ccc(CN2C(=O)[C@@H](N)CS(=O)(=O)c3ccc(-c4nnc(C(C)(C)C)o4)cc32)cc1 [Example 92]	99	120
44.7	107	CC(O)(c1nnc(-c2ccc3c(c2)N(Cc2ccc(-c4noc(C(F)(F)F)n4)cc2)C(=O)[C@@H](N)CS3(=O)=O)o1)C(F)(F)F (stereo partly drawn) [Example 96, (3R)-3-amino-1,1-dioxo-7-[5-(2,2,2-trifluoro-1-hydroxy-1-methyl-ethyl)-1,3,4-oxadiazol-2-yl]-5-[[4-[5-(trifluoromethyl)-1,2,4-oxadiazol-3-yl]phenyl]methyl]-2,3-dihydro-1λ^6,5-benzothiazepin-4-one]		
		N[C@H]1CS(=O)(=O)c2ccc(-c3nnc(N4CCC(F)(F)CC4)o3)cc2N(Cc2ccc(-n3ccc(C(F)(F)F)n3)cc2)C1=O [Example 162, (3R)-3-amino-7-[5-(4,4-difluoro-1-piperidyl)-1,3,4-oxadiazol-2-yl]-1,1-dioxo-5-[[4-[3-(trifluoromethyl)pyrazol-1-yl]phenyl]methyl]-2,3-dihydro-1λ^6,5-benzothiazepin-4-one]	100	168
